Experimental data: patent US20250017840A1, “NOVEL SENOTHERAPY PEPTIDE AND COMPOSITION CONTAINING THE SAME” (AMOREPACIFIC CORPORATION, priority 2023, published 2025)

What was measured:
[1] = tested on: skin senescent cells (aged skin fibroblasts, DI model and RS model); test: Survival rate of aged cells (CCK-8), selective apoptosis efficacy on skin senescent cells; type: cell-based, human; conditions: 100 μg/ml for 3 days, FIG. 2; for apoptosis effect of senescent cells (survival rate of aged cells, CCK-8): DI model or RS model skin fibroblasts; for selective apoptosis effect on the senescent cells versus normal cells: senescent versus normal skin fibroblasts
Procedure: Specifically, in the case of the DI model, the skin fibroblasts (Normal human dermal fibroblasts, Lonza, Switzerland) were cultured in DMEM Medium (Lonza, Switzerland) containing 10% FBS, and then were inoculated into a chamber slide (Thermo Fisher Scientific, USA) at 1×10^3 cells per well and cultured in a CO2 incubator of 5% concentration at 37° C. for 24 hours. The cultured wells were treated with each of Doxorubicin-hydrochloride (Sigma) and IGF-1 (Sigma) in a concentration of 100 ng/ml for 4 days to induce early senescence of the skin fibroblasts. As a control group, the normal skin fibroblasts that were not treated with Dox or IGF-1 were prepared. Thereafter, for the immunofluorescence stain, the cell culture solution was washed with PBS three times and fixed in 4% paraformaldehyde for 30 minutes. Then, the skin fibroblast sample was washed with PBS containing 0.2% Triton X-100 three times, added to PBS containing 3% BSA, and left for 1 hour. Next, the sample was incubated in 1% BSA containing rabbit polyclonal anti-FOXO4 antibody (SAB4501887, Sigma) (1:500 dilution) at 4° C. overnight to allow the antibody to bind to an antigen contained in the skin fibroblasts. Thereafter, the Sample was washed with the PBS three times, incubated with Alexa Fluor®488-conjugated goat polyclonal secondary antibody (A32731, ThermoFisher Scientific) (1:1000 dilution) against rabbit IgG-H&L at a room temperature for 1 hour, and then washed with the PBS three times. Next, a drop of the mounting solution containing DAPI was placed on a microscope slide glass and fixed by raising the coverslip itself. The fixed sample was observed by a confocal microscope (LSM 980, Zeiss, Germany).
In the case of the RS model, the aged skin fibroblasts were prepared by continuously culturing skin fibroblasts (Normal human dermal fibroblasts, Lonza, Switzerland) in DMEM Medium (Lonza, Switzerland) containing 10% FBS over 30 to 40 times. For the immunofluorescence staining test, each of the aged skin fibroblasts (p41) and the normal skin fibroblasts was inoculated into a chamber slide (Thermo Fisher Scientific, USA) at 1×10^3 cells per well, and cultured in a CO2 incubator of 5% concentration at 37° C. for 48 hours. Thereafter, the cell culture solution was washed with PBS three times and fixed in 4% paraformaldehyde for 30 minutes. Next, the skin fibroblast sample was washed with PBS containing 0.2% Triton X-100 three times, added to PBS containing 3% BSA, and left for 1 hour. Then, the sample was incubated in 1% BSA containing a rabbit polyclonal anti-FOXO4 antibody (SAB4501887, Sigma) (1:500 dilution) at 4° C. overnight to allow the antibody to bind to an antigen contained in the skin fibroblasts. Thereafter, the sample was washed with the PBS three times, incubated with Alexa Fluor®488-conjugated goat polyclonal secondary antibody (A32731, ThermoFisher Scientific) (1:1000 dilution) against rabbit IgG-H&L at a room temperature for 1 hour, and then was washed with the PBS three times. […]
As in Test Example 1, after the skin fibroblasts (DI model) that induced senescence by treating with each of Doxorubicin and IGF-1 in a concentration of 100 ng/ml for 4 days or the fibroblasts (RS model) aged by culturing the skin fibroblasts up to passage 40 were treated with a peptide (21a-D) consisting of the amino acid sequence of […] […] ([…]) in each concentration of 100 μg/ml for 3 days, a survival rate of the aged cells was measured. […]

[2] = tested on: skin senescent cells (DI model and RS model); test: SA-β-gal stain and microscopic observation of apoptosis efficacy on skin senescent cells; type: cell-based, human; conditions: treated as in Test Example 2, FIGS. 3A and 3B
Procedure: In the same manner as that of Test Example 2, after the DI model and the RS model were treated with a peptide (21a-D) consisting of the amino acid sequence of […] (SEQ ID NO: 1) and a peptide (FOXO4-DRI) consisting of the amino acid sequence of […] (SEQ ID NO: 4), SA-3-gal (senescent associated-β-galactosidase) stain and microscopic observation were performed to visually confirm an apoptosis efficacy of the skin senescent cells. The SA-3-Gal stain was performed according to the protocol using the Senescence Cell Histochemical Staining Kit (CS0030, Sigma, USA), and after 24 hours of the staining, it was confirmed whether or not the cells were stained through an optical microscope.

p53 and FOXO4 = target: T1, p53 and FOXO4 (Homo sapiens, UniProt P04637); test: Immunofluorescence observation of cytoplasmic movement of p53; type: cell-based; conditions: DI-treated aged skin fibroblasts; 100 ug/ml for 3 days; FIG. 4
T1 construct: endogenous in cells; host or cells: skin fibroblasts made senescent with doxorubicin and IGF-1 (DI model)
Procedure: It was confirmed through the immunofluorescence (IF) stain experiment whether or not this phenomenon was observed when the skin senescent cells were treated with the peptide having the amino acid sequence of SEQ ID NO: 1 according to an embodiment of the present invention. The aged skin fibroblasts treated with DI (Doxorubicin/IGF-1) were treated with the peptide 21a-D in the same manner as in Test Example 2, and then the expression and cytoplasmic movement of FOXO4 and p53 were observed.
Specifically, the skin fibroblasts were inoculated into a chamber slide (Thermo Fisher Scientific, USA) at 1×10^3 cells per well and cultured in a 5% CO2 incubator at 37° C. for 24 hours. The cultured wells were treated with each of Dox and IGF-1 in a concentration of 100 ng/ml for 4 days to induce early senescence of the skin fibroblasts, and then treated with the peptide 21a-D in a concentration of 100 ug/ml for 3 days followed by being further cultured. For immunofluorescence stain, the cell culture solution was washed with PBS three times and fixed by treating it with ice-cold methanol at −20° C. for 10 minutes. Next, it was added into PBS containing 3% BSA and left for 1 hour. […]

MMP-1 = MMP-1 expression in senescent cells by qPCR; type: cell-based, human; conditions: DI model senescent cells, treated as in Test Example 2; FIG. 5
Procedure: After treating the DI model with the peptide (21a-D) consisting of the amino acid sequence of […] (SEQ ID NO: 1) and the peptide (FOXO4-DRI) consisting of the amino acid sequence of […] (SEQ ID NO: 4) in the same manner as in Test Example 2 above, an ability to suppress the expression of MMP-1 in the senescent cells was identified. After recovering the cultured cells, total RNA was isolated using a TRIzol™ solution (TRIzol™ Reagent, Invitrogen) extraction method. 1 μg of the isolated RNA was synthesized into cDNA using reverse transcriptase (RevertAid Firist strand cDNA synthesis kit, Thermofisher), and then diluted to a final concentration of 200 μl. In order to perform PCR, a mixing kit was prepared by mixing […] (Hs00899658_m1, ThermoFisher Scientific), 10 μl of Taqman universal master mix II with UNG (Applied Biosystems), and 5 μl of distilled water to allow the mixture to be diluted to 16 μl. 16 μl of the mixing kit and 4 μl of cDNA were mixed to perform qPCR under the following reaction conditions. The reaction conditions were 95° C., initialization reaction for 10 minutes, denaturation at 95° C. for 15 seconds, annealing at 60° C. for 60 seconds, and extension reaction at 50° C. for 20 seconds, which were set to be performed in a PCR device (7500 Fast Real-time PCR system, Applied Biosystems) with repetition of 40 times.

T1 sequence (P04637 whole entry): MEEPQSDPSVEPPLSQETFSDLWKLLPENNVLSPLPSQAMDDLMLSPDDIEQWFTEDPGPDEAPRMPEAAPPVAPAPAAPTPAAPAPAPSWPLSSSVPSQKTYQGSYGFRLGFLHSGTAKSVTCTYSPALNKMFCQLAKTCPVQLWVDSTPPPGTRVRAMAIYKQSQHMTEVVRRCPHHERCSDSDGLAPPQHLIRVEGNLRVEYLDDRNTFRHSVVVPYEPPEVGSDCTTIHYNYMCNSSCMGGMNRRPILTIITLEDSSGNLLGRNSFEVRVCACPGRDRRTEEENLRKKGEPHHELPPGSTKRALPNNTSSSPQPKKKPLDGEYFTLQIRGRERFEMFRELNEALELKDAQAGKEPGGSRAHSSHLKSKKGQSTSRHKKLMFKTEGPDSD

| Sequence | apoptosis effect of senescent cells (survival rate of aged cells, CCK-8) [1] | selective apoptosis effect on the senescent cells versus normal cells [1] | number of senescent cells (SA-β-gal stain, microscopic observation) [2] | binding of p53 and FOXO4 in the nucleus (p53 and FOXO4) | cytoplasmic movement of p53 (immunofluorescence) (p53 and FOXO4) | expression of MMP-1 (qPCR, corrected for GAPDH) (MMP-1) |
| --- | --- | --- | --- | --- | --- | --- |
| LTLRKEPASEIAQSILEAYSQNGWANRRSGGKRPPPRRRQRRKKRG [FOXO4-DRI, reference compound] | apoptosis effect had on the senescent cells as well as even on the normal cells | weak |  |  |  |  |
| AYSQNGWANRRRRGGRRRRRR [21a-D] |  | selective apoptosis of only skin senescent cells was induced | significantly reduced | suppressed the binding of p53 and FOXO4 in the nucleus | p53 moved to a cytoplasm in the nucleus | suppressed |
| QRKKRRQRRRPRRNAWGNQSYA [22a-L] | minimal |  |  |  |  |  |
| AYSQNGWANRRPRRRQRRKKRG [22a-D] | minimal |  |  |  |  |  |
